# Measured values: patent US20190315711A1 (eXIthera Pharmaceuticals, Inc., priority 2016, published 2019)
# pIC50: −log10 of the molar value.
# Biological target: human Factor XIa (Homo sapiens, UniProt P03951)
# Assay: Factor XIa enzyme inhibition assay (dose response, fluorogenic AMC substrate)
# Assay type: biochemical
# Set-up: Enzyme: Factor XIa
# Settings: purified enzyme; substrate 50 μM, enzyme 0.25 nM; read-out: hFXIa IC50
# Description: • Assay buffer: 20 mM Hepes, pH 7.4; 150 mM NaCl; 0.02% Tween 20 • Compounds: 10 mM stocks in DMSO • Substrate: 20 mM Glp-Pro-Arg-AMC, 25 mg/2.3 mL H2O (store at +4° C.) [Factor XIa, thrombin, and trypsin] • 20 mM Pro-Phe-Arg-AMC (Bachem I-1295), 25 mg/2.2 mL H2O or Boc-Leu-Gly-Arg-AMC (Bachem I-1105), 25 mg/2.07 mL H2O (store at +4° C.) [Factor Xa] • Enzyme: Factor XIa; 0.25 M in 50% glycerol (20 μg/mL) • Trypsin; 0.2 μM in 50% glycerol (4.8 μg/mL) • Thrombin; 0.2 μM in 50% glycerol (7.34 μg/mL) • Factor Xa; 0.2 μM in 50% glycerol (9.2 μg/mL)
# • 1. Dilute the substrate to 100 μM in assay buffer (30 μL/6 mL). The enzyme is diluted to 0.5 nM just prior to use (12 L/6 mL for Factor XIa; 15 μL/6 mL for all of the rest.) • 2. Pipette 50 μL of substrate into each well of the 96 well (12×8) microtiter plate. (Column 1 is used as the 100% activity control and receives no compound, and Column 12 is the blank and receives no enzyme.) Add an additional 46 μL to column 2. • 3. Pipette 4 μL of each compound into the appropriate well in column 2 of the plate (unknowns assayed in triplicate, standard assayed in duplicate). The final compound concentration will be 1/50th of the stock. • 4. Serially two-fold dilute the compound by mixing the sample in column 2, removing 50 μL to the next well (column 3), mix and remove to column 4, etc. until column 11. After mixing column 11, remove 50 μL and discard. • 5. Pipette 50 μL of buffer into column 12. Initiate the reaction by adding 50 μL of enzyme solution to each well of columns 1-11 as rapidly as possible. • 6. Read the plate in a spectrophotometer (SpectraMax) at 30° C., wherein each well is measured every 60 s for 30 min. For Factor Xa assays, each well is measured every 1 min for a total of 60 min. • 7. For Factor XIa assays, the compounds are assayed, in duplicate, at 3 different starting concentrations, 20, 2, and 0.2 μM; 1:10, 1:100, and 1:1000 dilution of 10 mM stock or at 2, 0.2, and 0.02 μM; 1:100, 1:1000, and 1:10,000 dilution of 10 mM stock. Data for each concentration are combined for graphing and data fitting. • 8. Data can be used both for estimation of IC50 and for estimation of Kon.
# Potential inhibitors of Factor XIa were evaluated using the following assay.
# PyroGlu-Pro-Arg-7-methylaminocourin (AMC), available from CPC Scientific, Inc., is based on the substrate pyro-Glu-Pro-Arg-pNA (S-2366), available from Diapharma Group, Inc. (Columbus, Ohio), wherein the p-nitroanaline group is replaced with 7-methylaminocoumarin (AMC).
# The final concentration of the substrate in the assay was 50 μM, and the final concentration of the enzyme was 0.25 nM. Inhibitors were tested by serial dilution over an appropriate range to yield a dose response curve for determination of the inhibitors' IC50 value. The assay mixture was read every minute for 30 minutes in order to generate progress curves. The plates were read in a Spectramax m5 Multimode Plate Reader (Molecular Devices LLC, Sunnyvale, Calif.). Dose response curves were fit to Equation 1 below in which A is the maximum inhibition, B is the minimum inhibition, C is the IC50, and D is the Hill coefficient.
# Y=[(A−B)/(1+(X/C)^D)]+B (Equation 1)
# Sequence of human Factor XIa (P03951 388-625 limits assumed): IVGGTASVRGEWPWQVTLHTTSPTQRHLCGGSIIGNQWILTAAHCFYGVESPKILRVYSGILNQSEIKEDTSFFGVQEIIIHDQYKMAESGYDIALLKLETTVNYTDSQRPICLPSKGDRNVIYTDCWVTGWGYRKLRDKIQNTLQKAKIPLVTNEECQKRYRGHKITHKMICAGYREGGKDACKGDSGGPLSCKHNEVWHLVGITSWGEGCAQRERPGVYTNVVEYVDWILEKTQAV
# Sequence of human Factor XIa (P03951 19-387 partner limits assumed): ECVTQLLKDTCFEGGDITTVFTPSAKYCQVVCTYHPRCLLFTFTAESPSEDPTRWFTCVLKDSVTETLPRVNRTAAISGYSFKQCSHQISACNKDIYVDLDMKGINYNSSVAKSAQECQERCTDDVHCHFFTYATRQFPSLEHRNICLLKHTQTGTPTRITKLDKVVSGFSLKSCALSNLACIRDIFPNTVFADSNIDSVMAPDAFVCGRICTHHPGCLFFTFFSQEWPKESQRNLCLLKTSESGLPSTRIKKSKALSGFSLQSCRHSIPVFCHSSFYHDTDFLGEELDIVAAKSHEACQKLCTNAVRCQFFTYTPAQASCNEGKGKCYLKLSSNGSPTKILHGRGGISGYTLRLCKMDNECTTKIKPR
row,Structure (SMILES),pIC50
1,CCC[C@H](NC(=O)N1C(=O)[C@H](Cc2ccnc(N)c2)[C@H]1C(=O)N(C)c1ccccc1)c1cccnc1 [Compound 69],7.00 to 8.00
2,CN(C(=O)[C@@H]1[C@@H](Cc2ccnc(N)c2)C(=O)N1C(=O)NC(C(F)(F)F)C(F)(F)F)c1ccccc1 [Compound 71],7.00 to 8.00
3,CN(C(=O)[C@@H]1[C@@H](Cc2ccnc(N)c2)C(=O)N1C(N)=O)c1ccncc1 [Compound 72],7.00 to 8.00
4,CCC[C@@H](NC(=O)N1C(=O)[C@H](Cc2ccnc(N)c2)[C@H]1C(=O)N(C)c1ccncc1)c1cccnc1 [Compound 73],> 8.00
5,CCC[C@@H](NC(=O)N1C(=O)[C@H](Cc2ccnc(N)c2)[C@H]1C(=O)N(C)c1ncccn1)c1cccnc1 [Compound 74],> 8.00
6,CN(C(=O)[C@@H]1[C@@H](Cc2ccnc(N)c2)C(=O)N1C(=O)N[C@@H](c1cccnc1)C1CC1)c1ncccn1 [Compound 75],> 8.00
7,Nc1cc(C[C@H]2C(=O)N(C(=O)N[C@@H](C3CCCCC3)C(F)(F)F)[C@@H]2C(=O)N2CCCc3ccccc32)ccn1 [Compound 76],7.00 to 8.00
8,CC[C@@H](NC(=O)N1C(=O)[C@H](Cc2cc(N)ncc2F)[C@H]1C(=O)N(C)c1ccccc1)C1CCCCC1 [Compound 85],< 6.00
9,CC[C@@H](NC(=O)N1C(=O)[C@H](Cc2cc(N)ncc2C)[C@H]1C(=O)N(C)c1ccccc1)C1CCCCC1 [Compound 88],< 6.00
10,CC[C@@H](NC(=O)N1C(=O)[C@H](Cc2cc(N)ncc2C)[C@H]1C(=O)N(C)c1ccncc1)C1CCCCC1 [Compound 92],7.00 to 8.00
11,CC[C@@H](NC(=O)N1C(=O)[C@H](Cc2ccnc(N)c2)[C@H]1C(=O)N(C)c1ccncc1)c1ccc(F)c(F)c1 [Compound 93],7.00 to 8.00
12,CC[C@@H](NC(=O)N1C(=O)[C@H](Cc2ccnc(N)c2)[C@H]1C(=O)N(C)c1ccncc1)c1ccc(OC(F)(F)F)cc1 [Compound 94],7.00 to 8.00
13,Cc1cccc(C(NC(=O)N2C(=O)[C@H](Cc3ccnc(N)c3)[C@H]2C(=O)N(C)c2ccncc2)c2cccc(C)c2)c1 [Compound 101],> 8.00
14,CC[C@@H](NC(=O)N1C(=O)[C@H](Cc2ccnc(N)c2)[C@H]1C(=O)N(C)c1ccncc1)c1cncnc1 [Compound 102],7.00 to 8.00
15,CC[C@@H](NC(=O)N1C(=O)[C@H](Cc2ccnc(N)c2)[C@H]1C(=O)N(C)c1ccncc1)c1cccc(F)c1 [Compound 103],> 8.00
16,CC[C@@H](NC(=O)N1C(=O)[C@H](Cc2ccnc(N)c2)[C@H]1C(=O)N(C)c1ccncc1)c1cccc(C(F)(F)F)c1 [Compound 105],7.00 to 8.00
17,CC[C@@H](NC(=O)N1C(=O)[C@H](Cc2ccnc(N)c2)[C@H]1C(=O)N(C)c1ccncc1)c1cccc(OC(F)(F)F)c1 [Compound 106],7.00 to 8.00
18,CC[C@@H](NC(=O)N1C(=O)[C@H](Cc2ccnc(NC(C)=O)c2)[C@H]1C(=O)N(C)c1ccncc1)c1cccc(Cl)c1 [Compound 107],7.00 to 8.00
19,CC[C@@H](NC(=O)N1C(=O)[C@H](Cc2ccnc(N)c2)[C@H]1C(=O)N(C)c1ccncc1)c1ccccc1F [Compound 108],> 8.00
20,CC[C@@H](NC(=O)N1C(=O)[C@H](Cc2ccnc(NC)c2)[C@H]1C(=O)N(C)c1ccncc1)c1cccc(Cl)c1 [Compound 109],> 8.00
21,CC[C@@H](NC(=O)N1C(=O)[C@H](Cc2ccnc(N)c2)[C@H]1C(=O)N(C)c1ccncc1)c1cc(F)ccc1F [Compound 110],> 8.00

row,Structure (SMILES),pIC50
1,CC[C@@H](NC(=O)N1C(=O)[C@H](Cc2cc(C)nc(N)c2)[C@H]1C(=O)N(C)c1ccncc1)c1cccc(Cl)c1 [Compound 111],> 8.00
2,CC[C@@H](NC(=O)N1C(=O)[C@H](Cc2cc(C)nc(N)c2)[C@H]1C(=O)N(C)c1ccncc1)C1CCCCC1 [Compound 114],> 8.00
3,CC[C@@H](NC(=O)N1C(=O)[C@H](Cc2cc(C)nc(N)c2)[C@H]1C(=O)N(C)c1ccncc1)c1ccccc1 [Compound 122],> 8.00
4,CC[C@@H](NC(=O)N1C(=O)[C@H](Cc2ccnc(N)c2)[C@H]1C(=O)N(C)c1cc(C)nc(C)c1)c1cccc(Cl)c1 [Compound 123],7.00 to 8.00
5,CC[C@@H](NC(=O)N1C(=O)[C@H](Cc2ccnc(N)c2)[C@H]1C(=O)N(C)c1ccncc1)c1cccc(Cl)c1Cl [Compound 125],> 8.00
6,CCc1cccc([C@@H](CC)NC(=O)N2C(=O)[C@H](Cc3ccnc(N)c3)[C@H]2C(=O)N(C)c2ccncc2)c1 [Compound 126],> 8.00
7,CC[C@@H](NC(=O)N1C(=O)[C@H](Cc2ccnc(N)c2)[C@H]1C(=O)N(C)c1ccnc(C)c1)c1cccc(C)c1 [Compound 128],> 8.00
8,CC[C@@H](NC(=O)N1C(=O)[C@H](Cc2ccnc(N)c2)[C@H]1C(=O)N(C)c1cc(C)nc(C)c1)c1cccc(C)c1 [Compound 129],7.00 to 8.00
9,CC[C@@H](NC(=O)N1C(=O)[C@H](Cc2ccnc(N)c2)[C@H]1C(=O)N(C)c1ccncc1)c1cccc(F)c1F [Compound 130],7.00 to 8.00
10,CC[C@@H](NC(=O)N1C(=O)[C@H](Cc2cc(N)ncc2F)[C@H]1C(=O)N(C)c1ccncc1)c1cccc(Cl)c1 [Compound 131],6.00 to 7.00
11,CC[C@@H](NC(=O)N1C(=O)[C@H](Cc2cc(C)nc(N)c2)[C@H]1C(=O)N(C)c1ccccc1)c1ccc(C)nc1 [Compound 132],7.00 to 8.00
12,CC[C@@H](NC(=O)N1C(=O)[C@H](Cc2cc(C)nc(N)c2)[C@H]1C(=O)N(C)c1ccncc1)c1ccc(C)nc1 [Compound 133],7.00 to 8.00
13,CC[C@@H](NC(=O)N1C(=O)[C@H](Cc2ccnc(N)c2)[C@H]1C(=O)N(C)c1ccccc1)c1ccc(C)nc1 [Compound 134],> 8.00
14,CC[C@@H](NC(=O)N1C(=O)[C@H](Cc2ccnc(N)c2)[C@H]1C(=O)N(C)c1cccc(F)c1)c1ccc(C)nc1 [Compound 136],> 8.00
15,CN(C(=O)[C@@H]1[C@@H](Cc2ccnc(N)c2)C(=O)N1C(=O)NCc1cccc(Cl)c1)c1ccccc1 [Compound 137],7.00 to 8.00
16,CN(C(=O)[C@@H]1[C@@H](Cc2ccnc(N)c2)C(=O)N1C(=O)NCc1cccc(Cl)c1)c1ccncc1 [Compound 138],> 8.00
17,CC[C@@H](NC(=O)N1C(=O)[C@H](Cc2ccnc(N(C)C)c2)[C@H]1C(=O)N(C)c1ccncc1)c1ccccc1Cl [Compound 139],6.00 to 7.00
18,CC[C@@H](NC(=O)N1C(=O)[C@H](Cc2ccnc(N(C)C)c2)[C@H]1C(=O)N(C)c1ccncc1)c1cccc(Cl)c1 [Compound 140],6.00 to 7.00
19,Nc1cc(C[C@H]2C(=O)N(C(=O)N[C@@H](C3CCCCC3)C(F)(F)F)[C@@H]2C(=O)Nc2ccc(Cl)cc2)ccn1 [Example 9],6.00 to 7.00
20,COc1cccc(N(C)C(=O)[C@@H]2[C@@H](Cc3ccnc(N)c3)C(=O)N2C(=O)N[C@@H](C2CCCCC2)C(F)(F)F)c1 [Example 12],7.00 to 8.00
